According to paper PMC6663879, “Biochemical and structural investigations clarify the substrate selectivity of the 2-oxoglutarate oxygenase JMJD6” (The Journal of Biological Chemistry, 2019):
Read-outs that look alike come from different tables or passages of the source.

How the values were obtained:
JMJD6^FL [1] = experiment: CPMG-edited NMR titration, apparent binding constant of 2OG; set-up: species or system human; settings: CPMG-edited 1H NMR (700 MHz), 20 μM 2OG, 200 μM Zn(II), Tris-d11 pH 7.5, titrated with EDTA-treated JMJD6; mean ± S.D. (n = 3); read-out: 2OG KD^app
Description: (§1) 20 μM 2OG and 200 μM Zn(II) were mixed in deuterated Tris-d11, pH 7.5, and the ^1H NMR signals for 2OG were recorded at 700 MHz ([39]). […] Typically, a 5–10% error was allowed in the curve-fitting process.
(§2) CPMG displacement experiments used a Bruker AV700 NMR machine, as reported previously ([39]). The PROJECT (Periodic Refocusing of J Evolution by Coherence Transfer)-CPMG sequence (90°x − (τ − 180°y − τ − 90°y − τ − 180°y − τ)n − acquisition) was applied ([56]). […] Water suppression was achieved by presaturation ([57], [58]).

JMJD6^Δ344–403 [2] = experiment: as above; set-up: species or system human; settings: CPMG-edited 1H NMR (700 MHz), 20 μM 2OG, 200 μM Zn(II), Tris-d11 pH 7.5, titrated with EDTA-treated JMJD6; mean ± S.D. (n = 3); read-out: 2OG KD^app
Description: as §1, §2

JMJD6^FL [3] = settings: read-out: 2OG Km^app; standard hydroxylation assay conditions, 2OG varied 0–150 μM, 37 °C, HEPES-KOH pH 8.0; mean ± S.D. (n = 3)
Description: (§3) JMJD6 activity was assayed using a reaction mixture of 10 μM purified JMJD6 and 100 μM substrate peptide, at 37 °C in 50 mM HEPES-KOH, pH 8.0, buffer supplemented with 100 μM (NH4)2Fe(SO4)2·6H2O (Sigma), 400 μM L-sodium ascorbate (Sigma), and 500 μM disodium 2OG (Fluka). After 30 min, the reaction was quenched by an equal volume of 1% (v/v) aqueous formic acid (Sigma). In a 96-well MALDI plate (Waters), 0.8 μl of CHCA (α-cyano-4-hydroxycinnamic acid, Aldrich) ([…] in 0.1 ml of CHCA solvent) and 0.6 μl of the quenched mixture were placed in a well. After drying, the samples were analyzed by MALDI-TOF MS using a reported procedure ([59], [60]). The kinetic data obtained thereafter were fitted using GraphPad Prism (GraphPad Software) ([59], [60]).

JMJD6^Δ344–403 [4] = settings: read-out: 2OG Km^app; standard hydroxylation assay conditions, 2OG varied 0–150 μM, 37 °C, HEPES-KOH pH 8.0; mean ± S.D. (n = 3)
Description: as §3

JMJD6^Δ363–403 [5] = target: T1, JMJD6^Δ363–403 (Homo sapiens, UniProt Q6NYC1); settings: read-out: 2OG Km^app; standard hydroxylation assay conditions, 2OG varied 0–150 μM, 37 °C, HEPES-KOH pH 8.0; mean ± S.D. (n = 3)
Description: as §3

JMJD6^FL [6] = settings: read-out: 2OG Km^app; reported for JMJD6^FL; ref Mantri et al. ([23]); cited from earlier work
JMJD6^Δ363–403 [7] = target: T1, JMJD6^Δ363–403; experiment: CPMG-edited NMR titration, apparent binding constant of 2OG; set-up: two more variants (aa 1–362, JMJD6^Δ363–403, and aa 1–343, JMJD6^Δ344–403); His6 (N); made in house; host or cells: Escherichia coli Rosetta2(DE3); settings: CPMG-edited 1H NMR (700 MHz), 20 μM 2OG, 200 μM Zn(II), Tris-d11 pH 7.5, titrated with EDTA-treated JMJD6; mean ± S.D. (n = 3); read-out: 2OG KD^app
Description: as §1, §2

## O=C(O)CCC(=O)C(=O)O [Peptide 2OG, 2-oxoglutarate]
JMJD6^FL [1]
  Kd: 2300 ± 1600 nM
JMJD6^Δ344–403 [2]
  Kd: 3.5 ± 2.1 µM
JMJD6^FL [3]
  Km: 31 ± 5.3 µM
JMJD6^Δ344–403 [4]
  Km: 45 ± 10 µM
JMJD6^Δ363–403 [5]
  Km: 24 ± 5.4 µM
JMJD6^FL [6]
  Km: 39 µM
JMJD6^Δ363–403 [7]
  Kd: 3000 ± 4800 nM
